Experimental data from patent publication US7144867B2, “Anticancer glycoside compounds” (priority 2004, dated 2006).

How the values were obtained:
AsPC-1 cells [1] = assay: TUNEL assay; type: cell-based, human; settings: 4 μg/mL, 72 hours; control 2.4%, P<0.001
Protocol: Terminal deoxynucleotidyl transferase-mediated deoxyuridine triphosphate nick-end labeling (TUNEL) assay. The assay was carried out for terminal incorporation of fluorescein 12-dUTP by terminal deoxynucleotidyl transferase into fragmented DNA in cancer cells (TUNEL assay kits, Promega, Madison, Wis.). Cells were cultured to 50%–60% confluence in T75 flasks in serum-free conditions for 24 hours and then treated with or without 4 μg/mL Frondoside A for 72 hours. Cells were then trypsinized and fixed in 1% methanol-free formaldehyde-PBS for 15 minutes. At the end of treatment, cells were harvested with trypsin-EDTA solution to produce a single cell suspension. Cells were then pelleted by centrifugation and washed twice with PBS. Cell pellets were suspended in 0.5 ml PBS and fixed in ice-cold 70% ethanol at 4° C. Fixed cells were centrifuged at 300×g for 10 minutes and pellets were washed with PBS. After resuspension with 1 ml PBS, cells were incubated with 10 μL of RNase I (10 mg/mL) and 100 μL of propidium iodide (400 μg/mL; Sigma) and shaken for 1 hour at 37° C. in the dark. Samples were analyzed by flow cytometry. Laser flow cytometry was used to quantify the green fluorescence of fluorescein-12-dUTP incorporated against the red fluorescence of propidium iodide.

p27 = assay: Western blotting, p27 in AsPC-1 cells; type: cell-based, human; settings: 4 μg/mL (FIG. 5)
Protocol: (§1) Western blotting. Cells were seeded into flasks and cultured to 50% to 60% confluence for 24 hours. Cells were then placed in serum-free medium with or without 4 μg/mL frondoside A for periods of 0, 24, 48 and 72 hours respectively. Proteins were extracted from attached and floating cells in lysis buffer containing 4% SDS. Protein concentrations were determined using the bicinchoninic acid assay with BSA as standard. Western blotting was carried out. In brief, equal amounts of protein in the cell lysates were separated on 15% SDS-PAGE and the proteins were transferred onto nitrocellulose membranes. After blocking non-specific sites with dried milk, membranes were incubated with the appropriate dilution of primary antibody. Membranes were then incubated with a horseradish peroxidase conjugated secondary antibody. Proteins were detected using an enhanced chemiluminescence detection system.

caspase 9 = assay: Western blotting, caspase 9 in AsPC-1 cells; type: cell-based, human; settings: 4 μg/mL, time-dependent (FIG. 3)
Protocol: as §1

AsPC-1 cells [2] = assay: Cell proliferation by cell counting; type: cell-based, human; settings: 4 μg/mL
Protocol: Cell culture. The poorly differentiated human pancreatic cancer line AsPC-1 was purchased from the American Type Culture Collection (ATCC, Manassas, Va., USA). Cells were cultured in MEM medium supplemented with penicillin G (100 U/mL), streptomycin (100 U/mL) and 10% FBS at 37° C. in humidified air with 5% CO2. Cells were harvested by incubation in trypsin-EDTA solution for 10–15 minutes. Cells were then centrifuged at 300×g for 5 minutes and cell pellets were suspended in fresh culture medium prior to seeding into culture flasks or plates.
Cell proliferation assay. Cell growth was analyzed by ^3H-methyl thymidine incorporation and cell counting. Following treatment of pancreatic cancer cells with a series of concentrations of frondoside A from 1 μg/mL to 16 μg/mL, cellular DNA synthesis was assayed by adding ^3H-methyl thymidine at 0.5 μLCi/well. After 2 hours incubation, the cells were washed twice with PBS, precipitated with 10% TCA for two hours, and solubilized from each well with 0.5 ml of 0.4 N NaOH. Incorporation of ^3H-methyl thymidine into DNA was measured by adding scintillation liquid and counting in a scintillation counter (LKB BackBeta, Wallac, Turku, Finland). […] The cells were counted using Z1-Coulter Counter (Luton, UK).

[3] = system: DLD-1 (human colon adenocarcinoma); assay: cells; settings: for Percent Growth (Mean ± SEM, n = 2): 72-hour
Protocol: Test Substance and Concentration. Frondoside A (CBR-24) was dissolved in 100% DMSO and then diluted with sterile distilled water to obtain initial working solutions of 10000, 1000, 100, 10, and 1 μM in 40% DMSO. A 100-fold dilution was further made in culture media to generate final assay concentration of 100, 10, 1, 0.1 and 0.01 μM in 0.4% of DMSO.
Cell Line and Culture Media. The tumor cell line DLD-1 (human colon adenocarcinoma), obtained from American Type Culture Collection (ATCC CCL-221), was incubated in 95% air-5% CO2 gas mixture at 37° C. The culture medium used was RPMI 1640 with 10% fetal bovine serum, which was supplemented with 1% Antibiotic-Antimycotic.
Evaluation of anti-proliferation for test substances. Aliquots of 100 μl of cell suspension (about 2.5×10^3 cells/well) were placed in 96-well microtiter plates in an atmosphere of 5% CO2 at 37° C. […] Thus, the final concentration of DMSO was 0.4%. The Frondoside A was evaluated for possible inhibitory effects on cell proliferation at concentrations of 100, 10, 1, 0.1 and 0.01 μM. At the end of incubation, 20 μl of 90% alamarBlue reagent was added to each well for another 6 hour incubation before detection of cell viability by fluorescent intensity. Fluorescent intensity was measured using a Spectrafluor Plus plate reader with excitation at 530 nm and emission at 590 nm.
Determination of IC50, TGI and LC50. The measured results were calculated by the following formula: PG(%)=100%×(Mean Ftest−Mean Ftime0)/(Mean Fctrl−Mean Ftime0) If (Mean Ftest−Mean Ftime0)<0, then PG (%)=100%×(Mean Ftest−Mean Ftime0)/(Mean Ftime0−Mean Fblank) Where: • PG: percent growth • Mean Ftime0=The average of 2 measured fluorescent intensities of reduced alamarBlue at the time just before exposure of cells to the test substance. • Mean Ftest=The average of 2 measured fluorescent intensities of alamarBlue after 72-hour exposure of cells to the test substance. • Mean Fctrl=The average of 2 measured fluorescent intensities of alamarBlue after 72-hour incubation without the test substance. • Mean Fblank=The average of 2 measured fluorescent intensities of alamarBlue in medium without cells after 72-hour incubation.

SMILES: COC1C(O)C(CO)OC(OC2C(O)COC(OC3C(C)OC(OC4C(OC5CCC6(C)C7CCC89C(=O)OC(C)(CCCC(C)C)C8C(OC(C)=O)CC9(C)C7=CCC6C5(C)C)OCC(OS(=O)(=O)[O-])C4O)C(OC4OCC(O)C(O)C4O)C3O)C2O)C1O.[Na+] [Frondoside A, 3-O-methyl-β-D-glucopyranosyl-(1→3)-β-D-xylopyranosyl-(1→4)-[β-D-xylopyranosyl-(1→2)]-β-D-quinovopyranosyl-(1→2)-4-O-sodium sulfate-β-D-xylopyranosyl-3-O-holost-7(8)-en-3β-ol-16β-O-acetate]
- TUNEL staining (AsPC-1 cells [1]): 36.1%
- expression of p27 (p27): not changed
- activation of caspase 9 (caspase 9): reduction in the amounts of the respective procaspase forms
- cell number compared to control (AsPC-1 cells [2]; 48 and 72 hours): marked and progressive decrease in cell number
- cell number compared to control (AsPC-1 cells [2]; first 24 hours): no obviously effect
- growth inhibition of DLD-1 cells relative to the vehicle-treated control ([3]; 10 μM and 100 μM (≦50% of cell proliferation)): significant growth inhibition
- Percent Growth (Mean ± SEM, n = 2) ([3]; DLD-1, 0.01 μM): 93 ± 5%
- Percent Growth (Mean ± SEM, n = 2) ([3]; DLD-1, 0.1 μM): 84 ± 11%
- Percent Growth (Mean ± SEM, n = 2) ([3]; DLD-1, 1 μM): 79 ± 5%
- Percent Growth (Mean ± SEM, n = 2) ([3]; DLD-1, 10 μM): 12 ± 0%
- Percent Growth (Mean ± SEM, n = 2) ([3]; DLD-1, 100 μM): −79 ± 5%
- TGI (Total Growth Inhibition) ([3]; DLD-1, semi-quantitative, nonlinear regression): 12 µM
- IC50 ([3]; read-out: IC50 (50% Inhibition Concentration), DLD-1, semi-quantitative, nonlinear regression): 3.6 µM
- CC50 ([3]; read-out: LC50 (50% Lethal Concentration), DLD-1, semi-quantitative, nonlinear regression): 41 µM
